Test results from the supplement of paper PMC10307832.

Columns and labels:
Assay in all cases: relative viability (nuclei count vs DMSO), 5 days (fraction); higher = more cells survive
[1] = compound: CC(=O)Nc1cccc(-n2c(=O)n(C3CC3)c(=O)c3c(Nc4ccc(I)cc4F)n(C)c(=O)c(C)c32)c1 [Trametinib] + CC1(C)CCC(c2ccc(Cl)cc2)=C(CN2CCN(c3ccc(C(=O)NS(=O)(=O)c4ccc(N[C@H](CCN5CCOCC5)CSc5ccccc5)c(S(=O)(=O)C(F)(F)F)c4)cc3)CC2)C1 [Navitoclax] (partner 0.5 µM)
Method in brief: (§1)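 One day after seeding in 1536-well plates, lung cancer cell lines were dosed by pin tool. Dosing was either single-drug or a fixed anchor-drug dose plus five library-drug doses (not always all listed) in √10 steps. After 5 days, nuclei were stained in one fix-and-stain step and counted on 4× images, and relative viability is the nuclei count of treated wells over that of vehicle wells, given as the median of duplicate plates.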

[2] = compound: CC(=O)Nc1cccc(-n2c(=O)n(C3CC3)c(=O)c3c(Nc4ccc(I)cc4F)n(C)c(=O)c(C)c32)c1 [Trametinib] + CCNC(=O)c1noc(-c2cc(C(C)C)c(O)cc2O)c1-c1ccc(CN2CCOCC2)cc1 [Luminespib] (partner 0.01 µM)
Method in brief: as §1

[3] = compound: CC(=O)Nc1cccc(-n2c(=O)n(C3CC3)c(=O)c3c(Nc4ccc(I)cc4F)n(C)c(=O)c(C)c32)c1 [Trametinib] + Cc1cc(Nc2cc(N3CCN(C)CC3)nc(Sc3ccc(NC(=O)C4CC4)cc3)n2)n[nH]1 [Tozasertib] (partner 0.1 µM)
Method in brief: as §1

[4] = compound: CN1C=C(C2=CC=CC=C21)/C=C\3/C4=C(C=CC=N4)NC3=O + C[C@]1(O)C[C@@H](c2nc(-c3ccc4ccc(-c5ccccc5)nc4c3)c3c(N)nccn32)C1 [Linsitinib] (partner 1 µM)
Method in brief: as §1

| Cell Line | relative viability ([1]; first compound 0.0025 µM) | relative viability ([1]; first compound 0.007906 µM) | relative viability ([1]; first compound 0.025 µM) | relative viability ([1]; first compound 0.07906 µM) | relative viability ([1]; first compound 0.25 µM) | relative viability ([2]; first compound 0.0025 µM) | relative viability ([2]; first compound 0.007906 µM) | relative viability ([2]; first compound 0.025 µM) | relative viability ([2]; first compound 0.07906 µM) | relative viability ([2]; first compound 0.25 µM) | relative viability ([3]; first compound 0.0025 µM) | relative viability ([3]; first compound 0.007906 µM) | relative viability ([3]; first compound 0.025 µM) | relative viability ([3]; first compound 0.07906 µM) | relative viability ([3]; first compound 0.25 µM) | relative viability ([4]; first compound 0.02 µM) | relative viability ([4]; first compound 0.06325 µM) | relative viability ([4]; first compound 0.2 µM) | relative viability ([4]; first compound 0.6325 µM) | relative viability ([4]; first compound 2 µM) |
| --- | --- | --- | --- | --- | --- | --- | --- | --- | --- | --- | --- | --- | --- | --- | --- | --- | --- | --- | --- | --- |
| NCI-H2405 | 0.732 | 0.515 | 0.48 | 0.423 | 0.305 | 0.529 | 0.591 | 0.395 | 0.338 | 0.306 | 0.695 | 0.687 | 0.664 | 0.497 | 0.468 | 0.871 | 0.912 | 0.783 | 0.954 | 0.816 |
| NCI-H3122 | 0.937 | 0.867 | 0.508 | 0.548 | 0.435 | 0.103 | 0.0926 | 0.0926 | 0.0939 | 0.0775 | 0.367 | 0.322 | 0.183 | 0.217 | 0.142 | 0.895 | 0.972 | 1.01 | 1.06 | 1.04 |
| PC-3 [JPC-3] | 0.815 | 0.793 | 0.709 | 0.705 | 0.455 | 0.656 | 0.574 | 0.385 | 0.405 | 0.396 | 0.864 | 0.742 | 0.795 | 0.629 | 0.563 | 0.947 | 0.902 | 0.974 | 0.889 | 0.917 |
| PC-14 | 0.99 | 1.05 | 0.978 | 0.882 | 0.452 | 0.125 | 0.147 | 0.127 | 0.152 | 0.147 | 0.508 | 0.527 | 0.46 | 0.364 | 0.156 | 0.95 | 0.933 | 0.988 | 0.929 | 0.96 |
| RERF-LC-KJ | 0.948 | 1.09 | 0.968 | 0.966 | 0.717 | 1.21 | 1.19 | 1.14 | 1.09 | 0.736 | 0.493 | 0.545 | 0.539 | 0.509 | 0.387 | 0.886 | 0.935 | 0.929 | 0.813 | 0.84 |
| SK-LU-1 | 0.971 | 0.929 | 0.65 | 0.337 | 0.296 | 0.216 | 0.187 | 0.176 | 0.17 | 0.159 | 0.301 | 0.309 | 0.286 | 0.264 | 0.181 | 0.838 | 0.894 | 1.15 | 1.09 | 1.14 |
| SK-MES-1 | 1.3 | 1.25 | 0.943 | 0.624 | 0.357 | 0.498 | 0.368 | 0.277 | 0.231 | 0.207 | 0.955 | 0.921 | 0.745 | 0.466 | 0.361 | 0.937 | 1.18 | 1.09 | 1.02 | 1.06 |
| SW 1573 | 0.723 | 0.885 | 0.609 | 0.546 | 0.404 | 0.181 | 0.237 | 0.13 | 0.157 | 0.163 | 0.179 | 0.147 | 0.191 | 0.129 | 0.143 | 0.894 | 0.793 | 0.914 | 0.787 | 0.965 |
